This note sets out measurements from patent publication US20160318844A1, “PROSTACYCLIN COMPOUNDS, COMPOSITIONS AND METHODS OF USE THEREOF” (Insmed Incorporated, priority 2015, published 2016).

Data set [1] is described as follows: Treprostinil alkyl ester conversion to treprostinil in rat lung tissue homogenate. The class given is in vitro ADME. As to conditions: 37° C., 200 nM, 10 mg/mL of protein. As for the experimental part: (§1) Here, data were calculated based on fit of exponential increase to the maximum (experiments performed in duplicate). The results of this study are provided below in Table 2A and FIG. 37. […] In this experiment, treprostinil alkyl esters were incubated for 4 hours at a final concentration of 200 nM in 1 mL of tissue homogenate prepared in water and normalized to 10 mg/mL of protein.
(§2) C12-TR was incubated for 4 hours at a final concentration of 200 nM in 1 mL of tissue homogenate prepared in water and normalized to 10 mg/mL of protein. Both FIG. 37 experiments (eft and right graphs) were performed in duplicate and the lines represent nonlinear exponential regression assuming 1 phase decay. Table 2A. Rate of treprostinil alkyl ester conversion in the presence of rat, dog or monkey lung tissue homogenate.

Data set [2] can be described thus: Treprostinil alkyl ester conversion to treprostinil in monkey lung tissue homogenate. The class given is in vitro ADME. As to conditions: 37° C. How it is done: as §1, §2
The target of data set [3] is T1, EP2 prostanoid receptor (Homo sapiens, UniProt P43116).
T1 construct: host or cells: CHO-K1
T1 sequence (P43116 whole entry): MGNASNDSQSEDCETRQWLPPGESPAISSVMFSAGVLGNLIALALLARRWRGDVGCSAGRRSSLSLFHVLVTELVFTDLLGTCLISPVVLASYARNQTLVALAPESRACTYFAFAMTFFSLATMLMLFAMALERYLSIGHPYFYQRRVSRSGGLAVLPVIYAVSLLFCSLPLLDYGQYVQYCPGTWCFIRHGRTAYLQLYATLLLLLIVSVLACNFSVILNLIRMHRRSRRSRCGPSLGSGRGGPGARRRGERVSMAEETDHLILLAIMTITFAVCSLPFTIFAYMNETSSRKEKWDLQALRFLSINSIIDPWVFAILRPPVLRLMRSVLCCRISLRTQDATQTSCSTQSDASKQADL
Kind of data set: GloSensor cAMP assay in CHO-K1 cells co-transfected with the EP2 receptor. The data set is classed as cell-based. From the text:
cAMP is a second messenger involved in signal transduction of G-protein coupled receptors (GPCRs) acting through Gα-s and Gα-i proteins. Because the treprostinil receptor is a GPCR, the assay provides an indication of whether the respective prostacyclin compound (or metabolite thereof) binds its receptor and activates the GPCR cell signaling cascade. The GloSensorTM assay harnesses a genetically modified form of firefly luciferase into which a cAMP-binding protein moiety has been inserted. Upon binding of cAMP, a conformational change is induced leading to increased light output. The EP2 prostanoid receptor was cotransfected with the GioSensorm plasmid (Promega) into CHO-K cells as follows. CHO-K cells were harvested when the monoloayer was at 50-90% confluence. First, cells were washed with 5 mL PBS. […] The media was aspirated, and the cell pellet was resuspended in 10 mL of growth media. Cell number was determined using a hemacytometer. […] For small scale transfections of up to 20 wells, the pGLoSensor-22F cAMP plasmid (Promega, Cat #: E2301) (2 apg): […] Cat #: […] P2271) ratio was diluted to a final concentration of 12.6 ng/μL (total plasmid) in Opti-MEM I reduced-serum medium (Life Technologies, Cat #: 1985062). Next, 6 μL of FuGENE HD transfection reagent (Promega, Cat #: E2311) was added to 160 μL of diluted plasmid and mixed carefully by gentle pipetting. The complex was incubated at room temperature for 0 to 10 minutes, and then 8 μL of the complex was added per well of a 96 well white assay plate (Costar, Cat #: 3917) and gently mixed without disturbing the cell monolayer. […] Following incubation, cells were treated and analyzed. For larger scale transfections, the aforementioned steps were scaled up accordingly, and cells were frozen following the last incubation. In order to prepare frozen transfected CHO-K cells, the media was aspirated from culture flasks and cells were rinsed with 5 mL PBS. […] Cell number was determined using a hemacytometer. The media was aspirated, and the cell pellet was resuspended in freezing media (Millipore, cat #: S-002-SF) at 2.5×10^4 cells/vial. Transfected cells were incubated overnight at -80° C. before transfer to liquid nitrogen for long term storage. […] SH30071.03)). […] In preparation for cAMP measurement, the cells were equilibrated with the GloSensor cAMP reagent prior to treatment. For equilibration, the medium was carefully removed from the individual well. Next, 100 μL of equilibration medium ([…] of Glosensor Reagent stock solution (Promega, Cat #: E291), 10% FBS (Hydone, Cat #: SH30071.03) and 88% CO2 independent medium (Life Technologies, Cat #: 18045088)) was added per well of the 96-well plate, and added to the side of each well. The plate was then incubated for 2 hours at room temperature. A first pre-read measurement was taken using a microplate reader (MicroLumat Plus). Plates were incubated for an additional 10 minutes at room temperature, followed by a second pre-read measurement. […] Following treatment, each plate was read every 5 minutes for the duration of the assay using a microplate reader (MicroLumat Plus). In order to determine the fold change in cAMP relative to the control, the transfection efficiency was first determined by dividing the second pre-read measurement by the average of the corresponding pre-read measurements. Next, the normalized relative light units (RLUs) of the samples were determined by dividing the plate read measurement by the transfection efficiency. The fold change in cAMP relative to the control was then determined by dividing the normalized RLU of the samples by the normalized RLU of the control. The cAMP assay was validated using free treprostinil. […] Luminescence was then measured at room temperature. […] Nebulizer Aeroneb Pro (Aerogen) was used to nebulize treprostinil derivative compositions. Desired volume of the formulation (usually 3 mL) was loaded to the mesh head of the nebulizer. […]
A general note: Changes in cAMP serve as a functional read-out for many G protein-coupled receptors.

A short description of data set [4]: Treprostinil alkyl ester conversion to treprostinil in dog lung tissue homogenate. The class given is in vitro ADME. As to conditions: 37° C. As for the experimental part: as §1, §2
The subject of data set [5] is NR8383 cells. The data set is described as follows: NR8383 cell proliferation assay. The data set is classed as cell-based, rat. As to conditions: for Effect on cell proliferation, NR8383 Cells: detectable cell inhibition: Table 9, unformulated alkyl esters, (0.195 μM-25 μM), 72 hour incubation. How it is done: Rat alveolar NR8383 cells were harvested when the monolayer was 50-90% confluent (use passage 5-11). Because the NR8383 cells include both adherent and non-adherent cells, media was transferred to a 50 mL Falcon tube. To obtain the cells remaining in the flask, 2 mL of plain media was added, and the remaining cells were scraped out of the 75 cm^2 flask with a cell scraper and added to the 50 mL tube. […] SH30071.03)+1×Pen-Strep (Life Technologies, cat #: 15410-122)). Cell number was determined using a hemacytometer. […] Measurements and calculations were made as described above for the CHO-K1 cells. Rat alveolar NR8383 cells were challenged with the same treprostinil derivative compositions: […]

[6] abbreviates: 4.5 hr incubation time, read-out: EC50 (μM) 4.5 hr.
The mark [7] stands for this setting: 6.0 hr incubation time, read-out: EC50 (μM) 6.0 hr.
Setting [8] is: 8.0 hr incubation time, read-out: EC50 (μM) 8.0 hr.
The mark [9] stands for this setting: EC50 (μM) 0.5 hr, 0.5 hr incubation time.
Where [10] appears, read: EC50 (μM) 1.0 hr, 1.0 hr incubation time.
Setting [11] is: EC50 (μM) 2.0 hr, 2.0 hr incubation time.
The mark [12] stands for this setting: EC50 (μM) 3.0 hr, 3.0 hr incubation time.
The mark [13] stands for this setting: EC50 (μM) 4.0 hr, 4.0 hr incubation time.
The mark [14] stands for this setting: EC50 (μM) 5.0 hr, 5.0 hr incubation time.
The mark [15] stands for this setting: EC50 (μM) 7.0 hr, 7.0 hr incubation time.

Molecules are shown by their SMILES. Where two headings read alike, the source gives them in different places.

In general, EC50 refers to the concentration needed to bring the measured effect to its halfway point. On to `CCCCCCCCOC(=O)COc1cccc2c1C[C@H]1C[C@@H](O)[C@H](CC[C@@H](O)CCCCC)[C@H]1C2` [Compound C8-TR, treprostinil octyl ester], for which the “Rate of treprostinil alkyl ester conversion” value in data set [1] is 32.5 nmOL/h * g of protein; in data set [2], 17.3 nmOL/h * g of protein; in data set [4] it was 49.8 nmOL/h * g of protein. The EC50 in data set [3] (setting [6]) was found to be 1.41 µM; in data set [3] (setting [7]) it was 1.4 µM; in data set [3] (setting [8]) it was 1.09 µM; in data set [3] (setting [9]), 3.69 µM; in data set [3] (setting [10]) it was 3.39 µM; in data set [3] (setting [11]), 1.69 µM. For the same compound, the half-maximal effective concentration (EC50) in data set [3] (setting [12]) worked out at 1.42 µM; in data set [3] (setting [13]), 1.53 µM; in data set [3] (setting [14]), 1.4 µM; in data set [3] (setting [15]), 1.34 µM. For the same compound, the “Effect on cell proliferation, NR8383 Cells: detectable cell inhibition” value in data set [5] is on record as “Some detectable cell”. Besides, in data set [5] (unformulated alkyl esters, highest concentration, 72 hour), the “inhibition of NR8383 cell proliferation” value is “showed some inhibition of cell proliferation”.
Turning to `CCCCCCCCCCCCOC(=O)COc1cccc2c1C[C@H]1C[C@@H](O)[C@H](CC[C@@H](O)CCCCC)[C@H]1C2` [Compound C12-TR, dodecyl-treprostinil], the “Rate of treprostinil alkyl ester conversion” value is listed as 1.1 nmOL/h * g of protein in data set [1], 0.6 nmOL/h * g of protein in data set [2] and 2.2 nmOL/h * g of protein in data set [4]. Moreover, the EC50 was determined as 3.17 µM in data set [3] (setting [6]); 3.25 µM in data set [3] (setting [7]); 2.9 µM in data set [3] (setting [8]); 4.98 µM in data set [3] (setting [9]); 5.35 µM in data set [3] (setting [10]); 4.54 µM in data set [3] (setting [11]). Also, the EC50 is 4.07 µM in data set [3] (setting [12]), 3.13 µM in data set [3] (setting [13]), 2.94 µM in data set [3] (setting [14]) and 3.17 µM in data set [3] (setting [15]). Besides, the “Effect on cell proliferation, NR8383 Cells: detectable cell inhibition” value in data set [5] is recorded as “No detectable cell inhibition”.
